Results taken from patent US7563787B2, “Substituted pyrazole compounds” (Miikana Therapeutics, Inc., priority 2005, dated 2009).

Assays:
recombinant Aurora A = biological target: T1, recombinant Aurora A (Homo sapiens, UniProt O14965); test: Aurora A (Aurora 2) Inhibition Assay (Z'-Lyte); format: biochemical; conditions: 100 μM compound; ATP 10 μM; 1 h
T1 construct: purchased Upstate, Lake Placid, N.Y
T1 sequence (O14965 1-403): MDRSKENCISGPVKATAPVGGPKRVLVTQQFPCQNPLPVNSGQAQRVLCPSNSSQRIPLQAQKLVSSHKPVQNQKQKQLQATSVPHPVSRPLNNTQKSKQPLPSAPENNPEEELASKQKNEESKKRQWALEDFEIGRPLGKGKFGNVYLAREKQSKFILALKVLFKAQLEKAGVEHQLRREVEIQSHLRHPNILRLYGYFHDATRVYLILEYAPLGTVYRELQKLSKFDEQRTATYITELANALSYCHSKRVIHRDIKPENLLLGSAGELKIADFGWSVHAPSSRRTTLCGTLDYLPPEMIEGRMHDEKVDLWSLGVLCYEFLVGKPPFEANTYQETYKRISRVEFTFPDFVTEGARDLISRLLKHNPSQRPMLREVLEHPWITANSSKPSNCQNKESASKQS

ABL1 Y253F = biological target: T2, ABL1 Y253F (Homo sapiens, UniProt P00519, Y253F); test: Kinase Selectivity Assay; format: biochemical; conditions: read-out: Percent Inhibition at 1 μM; further: ATP at apparent Km or 100 µM
T2 construct: purchased Invitrogen, Carlsbad, Calif
Experimental: (§1) Compounds were assayed for inhibitory activity against a panel of different kinase enzymes at a concentration of 1 μM. Where appropriate, full-length enzymes or catalytically active fragments, with N-terminal or C-terminal His- or GST-tags, were used (Invitrogen, Carlsbad, Calif.). Test compounds were initially diluted to 100× test concentration in 100% DMSO. This 100× concentration was then diluted to a 4× working concentration in Kinase Buffer (50 mM HEPES pH 7.5, 0.01% Brij-35, 10 mM MgCl2, 1 mM EGTA) and 2.5 μL was then added to a low volume NBS, 384-well plate (Corning, Corning, N.Y.). Five μL of a 2× peptide/kinase mixture (Invitrogen, Carlsbad, Calif.), as appropriate (listed in Table 3), was then added and the reaction was then initiated by addition of 2.5 μL of a 4× working concentration of ATP in Kinase Buffer.

HCT-116 cell growth = test: Whole Cell Cytotoxicity Assay: Sulforhodamine B; format: cell-based, Human; conditions: Homo sapiens, HCT-116; 100 μM compound; 96 hours; SRB staining
Aurora B kinase = biological target: T3, Aurora B kinase (Homo sapiens, UniProt Q96GD4); test: Aurora B (Aurora 1) Inhibition Assay; format: biochemical; conditions: 100 μM compound; ATP 50 μM; 16 h
T3 construct: purchased BPS Biosciences, San Diego, Calif
Experimental: Assays for Aurora B kinase inhibition were carried out similarly to those for Aurora A kinase (see above) with the following modifications. Aurora B kinase (BPS Biosciences, San Diego, Calif.) was used as the enzyme, at a concentration was 2.5 μg/mL. The ATP concentration was 50 μM, and the kinase reaction was allowed to proceed for 16 h. Sodium orthovanadate (20 μM) was added to the buffer to inhibit contaminating phosphatases.

SRC [1] = biological target: T4, SRC (Homo sapiens, UniProt P12931); test: Kinase Selectivity Assay; format: biochemical; set-up: full-length enzymes or catalytically active fragments; purchased Invitrogen; conditions: read-out: Percent Inhibition at 1 μM
Experimental: as §1

SRC [2] = biological target: T4, SRC; test: Src Kinase Inhibition Assay; format: biochemical; set-up: His (N); purchased Upstate USA Inc, Charlottesville, Va; conditions: read-out: inhibition of Src at a concentration of 1 μM; 1 μM compound; 33P-ATP filter assay
Experimental: Compounds were assayed for Src kinase inhibitory activity using N-terminal His-tagged human Src (Upstate USA Inc, 706 Forest Street, Charlottesville, Va.).

T4 sequence (P12931 whole entry, the tested form may be a part): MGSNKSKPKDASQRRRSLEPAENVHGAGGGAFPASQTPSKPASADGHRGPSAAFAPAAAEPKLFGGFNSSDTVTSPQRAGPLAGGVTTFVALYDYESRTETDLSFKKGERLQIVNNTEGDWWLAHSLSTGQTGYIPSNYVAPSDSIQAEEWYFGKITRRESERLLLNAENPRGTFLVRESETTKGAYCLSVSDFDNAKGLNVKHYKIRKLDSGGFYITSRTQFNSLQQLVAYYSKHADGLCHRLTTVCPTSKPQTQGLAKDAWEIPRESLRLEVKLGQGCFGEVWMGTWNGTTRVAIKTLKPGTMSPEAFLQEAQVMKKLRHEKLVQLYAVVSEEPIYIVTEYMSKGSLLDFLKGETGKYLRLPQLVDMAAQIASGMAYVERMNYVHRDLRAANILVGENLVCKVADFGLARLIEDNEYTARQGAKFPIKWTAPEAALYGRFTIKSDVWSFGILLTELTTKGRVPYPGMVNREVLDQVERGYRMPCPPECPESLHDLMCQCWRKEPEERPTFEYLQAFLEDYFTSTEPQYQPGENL
T3 sequence (Q96GD4 whole entry): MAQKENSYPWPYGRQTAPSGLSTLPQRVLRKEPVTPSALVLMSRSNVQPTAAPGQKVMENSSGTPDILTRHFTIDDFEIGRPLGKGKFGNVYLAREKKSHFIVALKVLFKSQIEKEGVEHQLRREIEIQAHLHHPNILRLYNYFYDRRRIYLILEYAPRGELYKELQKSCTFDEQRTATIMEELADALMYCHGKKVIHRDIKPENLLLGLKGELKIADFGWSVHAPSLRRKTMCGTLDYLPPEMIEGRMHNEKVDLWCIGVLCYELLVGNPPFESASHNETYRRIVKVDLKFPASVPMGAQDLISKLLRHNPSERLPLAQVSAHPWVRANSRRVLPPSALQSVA

| inhibition at 1 µM (ABL1 Y253F) [%] | SMILES | inhibition at 100 µM (recombinant Aurora A) [%] | inhibition at 100 µM (HCT-116 cell growth) [%] | inhibition at 100 µM (Aurora B kinase) [%] | inhibition at 1 µM (SRC [1]) [%] | inhibition at 1 µM (SRC [2]) [%] |
| --- | --- | --- | --- | --- | --- | --- |
| 57 | Cc1cc(Nc2nc(/C=C/c3ccccc3)nc(N3CCN(C)CC3)c2N)[nH]n1 [Example 10, 6-(4-methylpiperazin-1-yl)-N-(3-methyl-1H-pyrazol-5-yl)-2-[(E)-2-phenylvinyl]pyrimidin-4,5-diamine] | 100 | 99 | 97 | 85 | – |
| – | Cc1cc(Nc2cc(N3CCN(C)CC3)nc(/C=C/c3ccccc3)n2)n[nH]1 [Example 31, 6-(4-methylpiperazin-1-yl)-N-(3-methyl-1H-pyrazol-5-yl)-2-[(E)-2-phenylvinyl]pyrimidin-4-amine] | 100 | 99 | 100 | 96 | ~95 |
